Experimental data: patent US20030195183A1, “Method for correcting immune system of live body” (priority 2000, published 2003)
Several values for one entry are separate records, joined by “and”; a condition that tells them apart may be missing. Equal values may be shown once.

How the values were obtained:
phagocytic cells = assay: phagocytosis in vivo (peritoneal neutrophils and macrophages, St. aureus); parameters: species or system Strain C57BL6 mice
Procedure: Intraperitoneal injection of 3 ml of 3% peptone was made, and 2 hours later the animals were killed with chloroform. The mice were autopsied in aseptic conditions. Liquid was aspirated from abdominal cavity with a Pasteur's pipette and transferred to centrifuge test tubes; then centrifuging was carried out for 10 minutes at 1,000 rpm. […] Similar volume of Strain 1991 St. aureus was added to cells in a proportion of 1:10 proportion and incubated at 37° C. for 30 minutes. After incubation, smears were prepared on slides, fixed in methanol for 20 minutes and processed with Romanovsky-Giemsa's stain for 30 minutes. For evaluating the phagocytic activity of macrophages, the animals were tested on the third day after administration of peptone. Further testing was carried out similarly with that of neutrophils. The results were evaluated using a microscope at a magnification of 90×. Phagocytic index and phagocytic number were determined.

neutrophils = assay: neutrophil phagocytosis in vitro; assay type: cell-based, human; conditions: for Phagocytic Index, Study Group / Phagocytic number, Study Group: individual samples
Procedure: For evaluating the effect of the preparation on phagocytosis in vitro, blood sample was collected from donor's cubital vein in a test tube containing heparin at a dose of 10 units per ml of blood. 0.8 ml of 3% gelatin prepared based on Medium 199 were added to 2 ml of blood. The test tubes were incubated in a thermostat at 37° C. for 20 minutes. Then the supernatant containing cells was aspirated to a centrifuge tube. Cells were twice washed with Medium 199 with centrifuging at 1,000 rpm. 1 ml of Medium 199 was added to the sediment and neutrophils were counted in Goryaev's chamber. Then, cellular suspension containing 2·10^6 neutrophils in 1 ml was prepared based on Medium 199. Simultaneously, suspension of St. aureus in a concentration of 20·10^6/ml was prepared. After preliminary opsonization with an equal volume of pooled human plasma in a thermostat at 37° C. for 20 minutes, the Staphylococcus suspension was centrifuged and washed with Medium 199. The preparation in 200, 20 and 2 μg/ml concentrations was added to mixture of equal volumes of neutrophils and staphylococci; Medium 199 was added to control test tubes. After incubation in a thermostat at 37° C. for 30 minutes, the test tubes where centrifuged, and preparations were prepared in accordance with the procedure described above. Phagocytic index and phagocytic number for study group were compared with the same for control group.

[1] = clinical study, treatment of acute intestinal infections (AII); assay type: in vivo, human
Procedure: Efficacy of the preparation in decreasing the gravity of manifestations of various forms of AII was evaluated in accordance with the used program of study with aid of a three-point scale.
After the study was finished, general evaluation of clinical efficacy and safety of the preparation based on a 4-point scale, depending on nosologic forms, was carried out.

[2] = test system: macrophages, interleukins and other acute phase proteins; conditions: e.g. patients with malignant tumors; dose range of 10 to 1000 mg; cited from earlier work
[3] = third dose group, dose cell empty
[4] = Acute gastroenteritis, 4 patients
[5] = Alimentary toxoinfection, 4 patients

For Nc1cccc2c(=O)[nH][nH]c(=O)c12.[K] [potassium salt of 5-amino-2,3-dihydrophthalazine-1,4-dione], the “stimulating effect on phagocytic cells / phagocytic activity in vivo” value (phagocytic cells; dose 200 μg) was “no stimulating effect”, the “ability of phagocytic cells to intake microbial cells” value (phagocytic cells; doses of 2 ug and 20 ug) was “statistically significant increase” and the “phagocytic activity of macrophages in mice” value (phagocytic cells; doses ranging from 200 to 2 μg) was “stimulating effects”. The “Phagocytic Index, Study Group, Mean” value (neutrophils; dose 20 μg) was 7.8 ± 0.04, the “Phagocytic number, Study Group, Mean” value (neutrophils; dose 20 μg) was 89 ± 1.25 and the “Phagocytic Index, Study Group” value (neutrophils; dose 20 μg) was 3.9 and 2.8 and 4.6 and 6.8 and 13.2 and 9.1 and 16.3 and 5.2. The “Phagocytic number, Study Group” value (neutrophils; dose 20 μg) was 80 and 96 (2×) and 88 and 94 and 84 (2×) and 86, the “Phagocytic Index, Study Group, Mean” value (neutrophils; dose 200 μg) was 6.0 ± 0.04 and the “Phagocytic number, Study Group, Mean” value (neutrophils; dose 200 μg) was 77 ± 0.26. The “Phagocytic Index, Study Group” value (neutrophils; dose 200 μg) was 5.6 and 4.7 and 9.1 and 6.4 and 7.4, the “Phagocytic number, Study Group” value (neutrophils; dose 200 μg) was 78 and 85 and 84 and 71 and 67 and the “ability of neutrophils population to intake microbial cells” value (neutrophils; doses of 20 and 2 μg) was “statistically significant increase”. For the same molecule, the “effect on digestive activity of neutrophils” value (neutrophils; doses of 20 and 2 μg) was “practically no effect”, the “Phagocytic Index, Study Group, Mean” value (neutrophils; [3]) was 6.0 ± 0.16 and the “Phagocytic number, Study Group, Mean” value (neutrophils; [3]) was 86 ± 0.32. For the same molecule, the “Phagocytic Index, Study Group” value (neutrophils; [3]) was 6.4 (2×) and 4.5 and 7.4 and 5.6, the “Phagocytic number, Study Group” value (neutrophils; [3]) was 88 and 92 (2×) and 78 and 84 and the “patients with "excellent" or "good" effect” value ([1]; 20 patients with various forms of AII) was 90 % of patients. For the same molecule, the “Efficacy of the preparation: Excellent (number of patients)” value (“Efficacy of the preparation: Excellent” below) ([1]; Acute dysentery, 9 patients) was 1, the “Efficacy of the preparation: Good (number of patients)” value (“Efficacy of the preparation: Good” below) ([1]; Acute dysentery, 9 patients) was 7 and the “Efficacy of the preparation: Satisfactory (number of patients)” value ([1]; Acute dysentery, 9 patients) was 1. The “Efficacy of the preparation: Excellent” value [1, 4] was 2, the “Efficacy of the preparation: Good” value [1, 4] was 1 and the “Efficacy of the preparation: Satisfactory (number of patients)” value [1, 4] was 1. The “Efficacy of the preparation: Excellent” value [1, 5] was 1, the “Efficacy of the preparation: Good” value [1, 5] was 3 and the “Efficacy of the preparation: Excellent” value ([1]; Salmonellosis, 3 patients) was 1. The “Efficacy of the preparation: Good” value ([1]; Salmonellosis, 3 patients) was 2, the “Efficacy of the preparation: Excellent” value ([1]; Total, 20 patients) was 5 and the “Efficacy of the preparation: Good” value ([1]; Total, 20 patients) was 13. For the same molecule, the “Efficacy of the preparation: Satisfactory (number of patients)” value ([1]; Total, 20 patients) was 2, the “patients in whom the intoxication syndrome resolved within 1 to 3 days ("complete decrease")” value ([1]; of 20 patients) was 19 patients and the “patients with "insignificant decrease" in the first days and "complete decrease" by the 5th day of treatment” value ([1]; of 20 patients) was “one”. For the same molecule, the “patients with "excellent" or "good" effect” value ([1]; of 20 patients with various forms of AII) was 18 patients.
For Nn1[n-]c(=O)c2ccccc2c1=O.O.O.[Na+] [sodium salt of 2-amino-1,2,3,4-tetrahydrophthalazine-1,4-dione, dihydrate], the “effect in patients with weak cellular immunity reactions” value [2] is given as “activation of macrophages, interleukins and other acute phase proteins”.
